# Assay results from patent US20070275366A1, “Regulation of Sperm Function” (priority 2003, published 2007).
# Experiments:
# [1] = system: sperm from volunteers and patients attending fertility clinics; conditions: background statement, cited from earlier work
# [2] = system: frozen-thawed spermatozoa (Bull semen samples); assay: Sperm motility by microscopy on heated stage (percentage of motile spermatozoa with linear progressive movement); assay type: cell-based; conditions: for increase in sperm motility compared to fibronectin alone / increase in sperm motility compared to the RGD plus fibronectin sample: Angiotensin II 10^−9 moles/L added to fibronectin plus RGDS sample
# Procedure: Each sperm sample was packed and frozen in 0.25 ml plastic straws. The frozen spermatozoa straw (0.25 ml) was rapidly thawed by plunging it into a 37° C. water bath. When the sample was thawed, the straw was dried with a tissue, kept horizontal and cut both ends into a pre-warmed TALP medium.
# Spermatozoa were washed twice by TALP medium and centrifugation at 600×g for 10 minutes, then re-suspended with TALP pre-warmed to 37° C. The motility of the frozen-thawed spermatozoa was assessed at 37° C. using thermal plates. Sperm motility and morphology was estimated by microscopical observation on a warm 37° C. stage. Semen (10 μl) was covered by a cover glass (18 mm×18 mm) and at least 5 microscopic fields were examined. Motility was expressed as the percentage of motile spermatozoa with linear progressive movement in the sample (see Vinson, G. P., Puddefoot, J. R., Ho, M. M., Barker, S., Mehta, J., Saridogan, E. and Djahanbakhch, O. (1995). “Type 1 angiotensin II (AT1) receptors in sperm”, Journal Of Endocrinology, 144, 369-378). The prepared sperm sample were incubated with additives at 37° C. in a water bath as described in each example, and assayed for motility as before.
# All incubations were carried out at 37° C., using water bath and heated stage. Semen samples (10 μl) were applied to preheated (37° C.) slides and placed on the microscope heated stage and examined. The number of motile sperm were counted in the control sample at zero time, and in the treated samples after the incubation times indicated.
# bull spermatozoa = assay: Chlortetracycline (CTC) fluorescence assay of capacitation state; assay type: cell-based; conditions: Example 6
# Source text: An alternative method of assessing capacitation is by using the CTC assay (DasGupta S, Mills C L, Fraser L R. Ca(2+)-related changes in the capacitation state of human spermatozoa assessed by a chlortetracycline fluorescence assay. J Reprod Fertil. 1993 September; 99(1):135-43.; Fraser L R, Herod J E. Expression of capacitation-dependent changes in chlortetracycline fluorescence patterns in mouse spermatozoa requires a suitable glycolysable substrate. J Reprod Fertil. 1990 March; 88(2):611-21). In this method, used in Example 6 below, patterns of staining distinguish non-capacitated, capacitated and acrosome reacted sperm. Chlortetracycline (CTC) solution: CTC (750 μM CTC in Tris (20 mM)-NaCl (130 mM), DL-cysteine (5 mM), buffer (20 mM Tris/130 mM NaCl, pH 7.8). Spermatozoa samples were obtained from healthy bulls (Semex, UK). All semen samples used in this study had been frozen and thawed. Each sample was packed in 0.25 ml plastic straws. The frozen spermatozoa straw (0.25 ml) was rapidly thawed by plunging it into a 37° C. water bath. When the sample was thawed, the straw was dried with a tissue, kept horizontal and cut both ends into a pre-warmed TALP medium. Spermatozoa were washed twice by TALP medium and centrifugation at 600 g for 10 minutes, then re-suspended with TALP pre-warmed to 37° C. Spermatozoa were incubated without additives, or with either angiotensin II (10^−9 moles per litre), fibronectin (5-50 μg/ml), or with both. Treated samples (45 μl) were aliquoted into foil wrapped eppendorf tubes with CTC solution (45 μl) and fixed with 12.5% paraformaldehyde, prior to viewing by […]. Three patterns of chlortetracycline fluorescent staining may be observed on bull spermatozoa: F (uncapacitated)-pattern, bright fluorescence was detected over the whole region of the sperm head; B (capacitated)-pattern, fluorescence was detected on the sperm head but not on the postacrosomal region; AR (acrosome-reacted)-pattern, weak fluorescence was observed over the sperm head, and a bright band was sometimes observed in the equatorial region.
# sperm = assay: Sperm viability, carboxyfluorescein diacetate / propidium iodide live-dead stain; assay type: cell-based; conditions: Example 7; fibronectin 5 μg/ml, stored at room temperature, after 3 days; untreated control 75% to 18%
# Procedure: Stock solutions: carboxyfluorescein diacetate (0.46 mg/ml in dimethyl sulphoxide), propidium iodide (0.5 mg/ml isotonic saline), formaldehyde (10 μl formalin to 150 μl distilled water). Fluorescence stain: 50 μl carboxyfluorescein and 50 μl of propidium iodide to 2 ml sperm extender, plus 100 μl formaldehyde.
# Semen were diluted with stain (1:1) dilution and incubated at room temperature […] for 15 min. Samples washed with extender, and examined for live and dead sperm.
# [3] = Example 3, fibronectin 2 μg/l added to sperm pre-incubated with RGDS, incubation of 5-10 minutes
molecule,measurement,setting,value
CCCCc1nc(Cl)c(CO)n1Cc1ccc(-c2ccccc2-c2nn[nH]n2)cc1 [losartan],effect on the action of angiotensin II on the percentage of motile sperm,[1]; specific AT1 receptor antagonist,inhibits the action of angiotensin II on the percentage of motile sperm
"Angiotensin II (DRVYIHPF; Angiotensin-2; UniProt P01019 25-32, looked up) [peptide used as capacitating agent]",increase in sperm motility compared to fibronectin alone,[2]; Example 1,71%
same,increase in sperm motility compared to the RGD plus fibronectin sample,[2]; Example 1,62%
same,increase in sperm motility compared to fibronectin alone,"[2]; Example 1, 10 minutes",43%
same,increase in sperm motility compared to the RGD plus fibronectin sample,"[2]; Example 1, 10 minutes",34%
same,increase in sperm motility compared to fibronectin alone,"[2]; Example 1, 20 minutes",64%
same,increase in sperm motility compared to the RGD plus fibronectin sample,"[2]; Example 1, 20 minutes",55%
same,sperm motility,"[2]; Example 2, Angiotensin II 10^−9 moles/L added to fibronectin (2 μg/l) sample, 10 minutes",64%
same,sperm motility,"[2]; Example 2, Angiotensin II 10^−9 moles/L added to fibronectin (2 μg/l) sample, 20 minutes",62%
same,sperm motility,"[2]; Example 2, Angiotensin II 10^−9 moles/L added to fibronectin (2 μg/l) sample, 3040 minutes",62%
same,sperm motility,"[2]; Example 3, Angiotensin II 10^−9 moles/L added to fibronectin+RGDS sample, 10 minutes",43%
same,sperm motility,"[2]; Example 3, Angiotensin II 10^−9 moles/L added to fibronectin+RGDS sample, 20 minutes",54%
same,sperm motility,"[2]; Example 3, Angiotensin II 10^−9 moles/L added to fibronectin+RGDS sample, 3040 minutes",54%
same,change in sperm motility,"[2]; Example 4, Angiotensin II 10^−9 moles/L added to vitronectin sample, 5 to 35 minutes",significant increase
same,change in sperm motility,"[2]; Example 5, Angiotensin II 10^−9 moles/L added to laminin sample, 10 to 40 minutes",significant increase
same,effect on percentage of motile sperm and linear velocity,[1],may increase both the percentage of motile sperm and their linear velocity
same,capacitated sperm (B pattern),"bull spermatozoa; angiotensin II only (10^−9 moles per litre), 60 min incubation",45%
same,uncapacitated sperm (F pattern),"bull spermatozoa; angiotensin II only (10^−9 moles per litre), 60 min incubation, control about 60%, 55% by 30 min",~18%
Arg-Gly-Asp-Ser (RGDS; printed: Arg-Gly-Asp-Ser) [commercially available tetrapeptide used as a source of RGD],decrease in sperm motility,"[2]; Example 3, pre-incubation with RGDS 5×10^6 moles/L for 5 min, control 62% at time zero",19%
fibronectin,sperm motility,"[2]; Example 1, fibronectin 2 μg/l, incubation of 5-10 minutes, 37° C., control 70% at time zero",14%
same,sperm motility,"[2]; Example 2, fibronectin 2 μg/l, incubation of 5-10 minutes, control 79% at time zero",8%
same,decrease of motility compared to the RGD treated sample,[2]; [3],28%
same,decrease of motility compared to the control,[2]; [3],47%
same,sperm remaining viable (living sperm),sperm,48%
same,patterns of sperm staining (CTC),bull spermatozoa; fibronectin 5 μg/ml,very similar to the untreated controls
"laminin: extracellular matrix protein (250 μg/ml, Sigma)",change in total sperm motility,"[2]; Example 5, laminin 2 μg/l, 10 min, 37° C.",significant decrease
"vitronectin: extracellular matrix protein (250 μg/ml, Sigma) (protein, UniProt P04004 20-478, looked up) Vitronectin: DQESCKGRCTEGFNVDKKCQCDELCSYYQSCCTDYTAECKPQVTRGDVFTMPEDEYTVYDDGEEKNNATVHEQVGGPSLTSDLQAQSKGNPEQTPVLKPEEEAPAPEVGASKPEGIDSRPETLHPGRPQPPAEEELCSGKPFDAFTDLKNGSLFAFRGQYCYELDEKAVRPGYPKLIRDVWGIEGPIDAAFTRINCQGKTYLFKGSQYWRFEDGVLDPDYPRNISDGFDGIPDNVDAALALPAHSYSGRERVYFFKGKQYWEYQFQHQPSQEECEGSSLSAVFEHFAMMQRDSWEDIFELLFWGRTSAGTRQPQFISRDWHGVPGQVDAAMAGRIYISGMAPRPSLAKKQRFRHRNRKGYRSQRGHSRGRNQNSRRPSRATWLSLFSSEESNLGANNYDDYRMDWLVPATCEPIQSVFFFSGDKYYRVNLRTRRVDTVDPPYPRSIAQYWLGCPAPGHL",change in total sperm motility,"[2]; Example 4, vitronectin 2 μg/l, 5 minutes, 37° C.",highly significant decrease
